{
  "source": "ChEMBL document CHEMBL2384978",
  "about": "“The opposite effect of isotype-selective monoamine oxidase inhibitors on adipogenesis in human bone marrow mesenchymal stem cells” (2013)",
  "format_in_all_cases": "functional",
  "key": {"[1]": {"experiment": "Induction of adipogenesis in human bone marrow MSC assessed as formation of intracellular lipid droplets at 10 uM after 15 days by oil red O staining in IDX condition relative to control"}, "[2]": {"tested_on": "MSC", "experiment": "Induction of adipogenesis in human bone marrow MSC assessed as adiponectin production at 30 uM after 14 days by ELISA relative to control"}, "[3]": {"tested_on": "MSC", "experiment": "Induction of SSAO-mediated adipogenesis in human bone marrow MSC assessed as adiponectin level at 0.1 to 1 mM after 14 days by ELISA"}, "[4]": {"tested_on": "MSC", "experiment": "Induction of adipogenesis in human bone marrow MSC assessed as adiponectin production after 14 days by ELISA in IDX condition"}, "[5]": {"tested_on": "MSC", "experiment": "Induction of adipogenesis in human bone marrow MSC assessed as PPARgamma up-regulation by RT-PCR analysis"}, "[6]": {"tested_on": "MSC", "experiment": "Induction of adipogenesis in human bone marrow MSC assessed as MAO-B up-regulation by RT-PCR analysis"}, "[7]": {"tested_on": "MSC", "experiment": "Induction of adipogenesis in human bone marrow MSC assessed as AOC2 up-regulation by RT-PCR analysis"}, "[8]": {"tested_on": "MSC", "experiment": "Induction of adipogenesis in human bone marrow MSC assessed as AOC3 up-regulation by RT-PCR analysis"}, "[9]": {"tested_on": "MSC", "experiment": "Induction of adipogenesis in human bone marrow MSC assessed as adiponectin up-regulation by RT-PCR analysis"}, "[10]": {"tested_on": "MSC", "experiment": "Induction of adipogenesis in human bone marrow MSC assessed as MAO-A up-regulation by RT-PCR analysis"}},
  "note": "Calls of active or inactive are those of the source. The rule behind the calls is not given here.",
  "data": [
    {"smiles": "NCCNC(=O)c1ncsc1-c1cccc(F)c1", "values": [
      {"measurement": "Activity", "setting": "[1]", "value": 49, "unit": "%"},
      {"measurement": "Activity", "setting": "[2]", "value": "Active"}
    ]},
    {"smiles": "NNC(N)=O", "values": [
      {"measurement": "Activity", "setting": "[3]", "value": "inactive"}
    ]},
    {"smiles": "C#CCN(C)[C@H](C)Cc1ccccc1", "note": "[SELEGILINE]", "values": [
      {"measurement": "Activity", "setting": "[1]", "value": 105, "unit": "%"},
      {"measurement": "Activity", "setting": "[4]", "value": "Dose-dependent effect"}
    ]},
    {"smiles": "N[C@@H]1C[C@H]1c1ccccc1.N[C@H]1C[C@@H]1c1ccccc1", "note": "(racemic) [TRANYLCYPROMINE]", "values": [
      {"measurement": "Activity", "setting": "[1]", "value": 79, "unit": "%"}
    ]},
    {"smiles": "O=C(NCCN1CCOCC1)c1ccc(Cl)cc1", "note": "[MOCLOBEMIDE]", "values": [
      {"measurement": "Activity", "setting": "[1]", "value": 146, "unit": "%"},
      {"measurement": "Activity", "setting": "[4]", "value": "Dose-dependent effect"}
    ]},
    {"smiles": "COc1ccc(Cl)cc1C(=O)NCCc1ccc(S(=O)(=O)NC(=O)NC2CCCCC2)cc1", "note": "[GLYBURIDE]", "values": [
      {"measurement": "Activity", "setting": "[1]", "value": 134, "unit": "%"},
      {"measurement": "Activity", "setting": "[5]", "value": "Active"},
      {"measurement": "Activity", "setting": "[6]", "value": "Active"},
      {"measurement": "Activity", "setting": "[7]", "value": "Active"},
      {"measurement": "Activity", "setting": "[8]", "value": "Active"},
      {"measurement": "Activity", "setting": "[9]", "value": "Active"},
      {"measurement": "Activity", "setting": "[10]", "value": "Active"}
    ]},
    {"smiles": "NNCCc1ccccc1", "note": "[PHENELZINE]", "values": [
      {"measurement": "Activity", "setting": "[1]", "value": 85, "unit": "%"}
    ]},
    {"smiles": "C#CCN(C)Cc1ccccc1", "note": "[PARGYLINE]", "values": [
      {"measurement": "Activity", "setting": "[1]", "value": 54, "unit": "%"},
      {"measurement": "Activity", "setting": "[2]", "value": "Active"}
    ]}
  ]
}
